Reference: patent US20250228835A1, “PYRIDINYLOXYPYRIDINES AND RELATED COMPOUNDS AND THEIR USE IN TREATING MEDICAL CONDITIONS” (Rectify Pharmaceuticals, Inc., priority 2024, published 2025)
Where two headings read alike, the source gives them in different places.

Experiments:
Format in all cases: cell-based
ABCA4 P1380L = biological target: T1, ABCA4 P1380L (Homo sapiens, UniProt P78363, P1380L); assay: A4 correction dose-response assay: ABCA4 P1380L HiBit protein expression; conditions: HEK-293 cells stably expressing HiBit-tagged ABCA4 P1380L, 24 h treatment, top concentration 30 μM
T1 construct: expressed in transfected cells
T1 sequence (P78363 whole entry P1380L): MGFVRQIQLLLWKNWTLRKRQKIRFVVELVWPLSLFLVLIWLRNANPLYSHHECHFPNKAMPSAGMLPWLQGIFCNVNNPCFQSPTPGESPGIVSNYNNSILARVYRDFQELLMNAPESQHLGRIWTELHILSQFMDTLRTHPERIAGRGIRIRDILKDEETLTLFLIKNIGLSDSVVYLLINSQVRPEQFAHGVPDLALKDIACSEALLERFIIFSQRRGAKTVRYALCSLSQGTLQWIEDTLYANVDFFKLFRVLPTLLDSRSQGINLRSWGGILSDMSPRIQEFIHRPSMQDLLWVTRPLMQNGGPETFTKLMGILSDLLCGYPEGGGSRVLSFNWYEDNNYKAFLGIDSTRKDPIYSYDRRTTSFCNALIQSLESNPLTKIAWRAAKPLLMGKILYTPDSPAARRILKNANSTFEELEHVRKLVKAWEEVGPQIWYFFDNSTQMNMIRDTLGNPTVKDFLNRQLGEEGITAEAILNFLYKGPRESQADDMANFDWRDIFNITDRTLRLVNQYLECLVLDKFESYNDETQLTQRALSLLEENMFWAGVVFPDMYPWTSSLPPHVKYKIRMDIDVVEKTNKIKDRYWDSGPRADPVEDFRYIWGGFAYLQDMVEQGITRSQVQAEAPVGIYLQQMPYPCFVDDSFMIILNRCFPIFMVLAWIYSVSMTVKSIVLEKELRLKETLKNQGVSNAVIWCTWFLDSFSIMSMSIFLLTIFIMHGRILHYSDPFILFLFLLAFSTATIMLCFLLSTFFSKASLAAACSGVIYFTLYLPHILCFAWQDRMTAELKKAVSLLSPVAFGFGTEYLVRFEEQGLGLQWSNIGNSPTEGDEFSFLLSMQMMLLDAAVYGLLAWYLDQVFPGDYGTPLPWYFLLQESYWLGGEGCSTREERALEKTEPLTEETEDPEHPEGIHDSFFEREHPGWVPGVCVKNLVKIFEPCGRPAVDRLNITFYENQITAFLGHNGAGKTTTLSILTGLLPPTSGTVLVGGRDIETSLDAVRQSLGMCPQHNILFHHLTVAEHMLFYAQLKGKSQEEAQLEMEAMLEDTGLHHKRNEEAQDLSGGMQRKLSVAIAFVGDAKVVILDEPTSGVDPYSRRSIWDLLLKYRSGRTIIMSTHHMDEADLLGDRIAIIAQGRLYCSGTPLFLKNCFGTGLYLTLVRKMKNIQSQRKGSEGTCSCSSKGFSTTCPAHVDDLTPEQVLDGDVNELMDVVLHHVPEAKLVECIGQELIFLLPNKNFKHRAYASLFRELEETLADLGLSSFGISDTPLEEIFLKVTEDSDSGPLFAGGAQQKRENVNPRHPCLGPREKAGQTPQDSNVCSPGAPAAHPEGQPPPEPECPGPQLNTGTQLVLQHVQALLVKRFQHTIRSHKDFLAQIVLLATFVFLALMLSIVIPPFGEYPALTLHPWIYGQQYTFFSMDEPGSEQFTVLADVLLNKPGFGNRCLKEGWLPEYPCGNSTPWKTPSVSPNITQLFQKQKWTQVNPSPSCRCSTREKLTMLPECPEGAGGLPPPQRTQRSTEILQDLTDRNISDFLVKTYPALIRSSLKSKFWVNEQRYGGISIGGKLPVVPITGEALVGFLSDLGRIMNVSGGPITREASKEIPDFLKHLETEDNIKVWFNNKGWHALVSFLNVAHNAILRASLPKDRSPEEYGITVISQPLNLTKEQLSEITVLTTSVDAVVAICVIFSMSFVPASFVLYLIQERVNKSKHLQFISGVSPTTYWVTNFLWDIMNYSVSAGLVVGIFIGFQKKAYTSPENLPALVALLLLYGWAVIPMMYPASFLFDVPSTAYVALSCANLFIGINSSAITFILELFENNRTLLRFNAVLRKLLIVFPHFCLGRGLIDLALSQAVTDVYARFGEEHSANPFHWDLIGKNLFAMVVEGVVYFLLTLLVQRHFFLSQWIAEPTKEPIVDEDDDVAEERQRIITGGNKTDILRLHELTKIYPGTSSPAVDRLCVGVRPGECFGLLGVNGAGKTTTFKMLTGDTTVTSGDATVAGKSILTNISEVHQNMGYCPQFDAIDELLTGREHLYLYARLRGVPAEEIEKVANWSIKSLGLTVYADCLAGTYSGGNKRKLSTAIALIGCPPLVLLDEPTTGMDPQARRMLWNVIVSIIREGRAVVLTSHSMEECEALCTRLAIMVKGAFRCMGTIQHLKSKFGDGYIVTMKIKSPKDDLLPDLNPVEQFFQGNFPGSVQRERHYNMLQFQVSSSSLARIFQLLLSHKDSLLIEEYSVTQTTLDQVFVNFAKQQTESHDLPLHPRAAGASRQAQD
In short: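 Cells transfected with HiBit-tagged human ABCA4 P1380L cDNA were treated for 24 h at 37°C with an eleven-point dilution series (top final 30 μM, 0.3% DMSO).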

ABCD2 WT = biological target: T2, ABCD2 WT (Homo sapiens, UniProt Q9UBJ2); assay: D2 correction dose-response assay: ABCD2 WT HiBit protein expression; conditions: HEK-293/ABCD2 WT cells, 24 hours treatment, HiBit luminescence; class combines EC50 and Mean MaxAct (fold); read-out: ABCD2 WT EC50, Emax
T2 construct: expressed in transfected cells
T2 sequence (Q9UBJ2 1-740): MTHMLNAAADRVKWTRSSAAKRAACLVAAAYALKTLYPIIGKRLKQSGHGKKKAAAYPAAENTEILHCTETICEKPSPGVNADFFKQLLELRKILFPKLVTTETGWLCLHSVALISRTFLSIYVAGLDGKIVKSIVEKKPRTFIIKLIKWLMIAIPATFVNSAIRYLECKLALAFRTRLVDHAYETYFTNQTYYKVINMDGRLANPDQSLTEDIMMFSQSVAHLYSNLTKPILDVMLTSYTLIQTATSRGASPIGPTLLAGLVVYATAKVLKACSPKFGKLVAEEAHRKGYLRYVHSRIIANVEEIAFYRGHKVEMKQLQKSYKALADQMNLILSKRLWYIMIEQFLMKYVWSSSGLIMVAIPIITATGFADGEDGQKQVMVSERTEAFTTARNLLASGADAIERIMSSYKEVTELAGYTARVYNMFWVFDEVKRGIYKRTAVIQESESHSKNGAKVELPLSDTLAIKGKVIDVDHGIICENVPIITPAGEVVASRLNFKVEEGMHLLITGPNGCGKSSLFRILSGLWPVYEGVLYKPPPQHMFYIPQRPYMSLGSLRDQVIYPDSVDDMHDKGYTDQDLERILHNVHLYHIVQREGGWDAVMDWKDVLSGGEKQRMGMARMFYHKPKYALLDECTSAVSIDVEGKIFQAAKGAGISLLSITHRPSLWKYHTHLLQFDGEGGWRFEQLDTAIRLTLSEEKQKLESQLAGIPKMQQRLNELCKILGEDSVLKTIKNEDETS
In short: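 HEK-293 cells stably expressing HiBit-tagged human ABCD2 WT were treated with 11 doses (3-fold dilutions, top final 30 μM, 0.3% DMSO) for 24 h at 37 °C. Expression was measured by HiBit lytic luminescence after 1 h at 25 °C, giving EC50 and Emax.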

ABCB4 WT = biological target: T3, ABCB4 WT (Homo sapiens, UniProt P21439); assay: ABCB4 WT assay: HiBit protein expression; conditions: HEK-293 cells stably expressing HiBit-tagged ABCB4 WT; 24 h treatment; top concentration 30 μM; read-out: ABCB4 WT EC50, Emax
T3 construct: expressed in transfected cells
T3 sequence (P21439 whole entry): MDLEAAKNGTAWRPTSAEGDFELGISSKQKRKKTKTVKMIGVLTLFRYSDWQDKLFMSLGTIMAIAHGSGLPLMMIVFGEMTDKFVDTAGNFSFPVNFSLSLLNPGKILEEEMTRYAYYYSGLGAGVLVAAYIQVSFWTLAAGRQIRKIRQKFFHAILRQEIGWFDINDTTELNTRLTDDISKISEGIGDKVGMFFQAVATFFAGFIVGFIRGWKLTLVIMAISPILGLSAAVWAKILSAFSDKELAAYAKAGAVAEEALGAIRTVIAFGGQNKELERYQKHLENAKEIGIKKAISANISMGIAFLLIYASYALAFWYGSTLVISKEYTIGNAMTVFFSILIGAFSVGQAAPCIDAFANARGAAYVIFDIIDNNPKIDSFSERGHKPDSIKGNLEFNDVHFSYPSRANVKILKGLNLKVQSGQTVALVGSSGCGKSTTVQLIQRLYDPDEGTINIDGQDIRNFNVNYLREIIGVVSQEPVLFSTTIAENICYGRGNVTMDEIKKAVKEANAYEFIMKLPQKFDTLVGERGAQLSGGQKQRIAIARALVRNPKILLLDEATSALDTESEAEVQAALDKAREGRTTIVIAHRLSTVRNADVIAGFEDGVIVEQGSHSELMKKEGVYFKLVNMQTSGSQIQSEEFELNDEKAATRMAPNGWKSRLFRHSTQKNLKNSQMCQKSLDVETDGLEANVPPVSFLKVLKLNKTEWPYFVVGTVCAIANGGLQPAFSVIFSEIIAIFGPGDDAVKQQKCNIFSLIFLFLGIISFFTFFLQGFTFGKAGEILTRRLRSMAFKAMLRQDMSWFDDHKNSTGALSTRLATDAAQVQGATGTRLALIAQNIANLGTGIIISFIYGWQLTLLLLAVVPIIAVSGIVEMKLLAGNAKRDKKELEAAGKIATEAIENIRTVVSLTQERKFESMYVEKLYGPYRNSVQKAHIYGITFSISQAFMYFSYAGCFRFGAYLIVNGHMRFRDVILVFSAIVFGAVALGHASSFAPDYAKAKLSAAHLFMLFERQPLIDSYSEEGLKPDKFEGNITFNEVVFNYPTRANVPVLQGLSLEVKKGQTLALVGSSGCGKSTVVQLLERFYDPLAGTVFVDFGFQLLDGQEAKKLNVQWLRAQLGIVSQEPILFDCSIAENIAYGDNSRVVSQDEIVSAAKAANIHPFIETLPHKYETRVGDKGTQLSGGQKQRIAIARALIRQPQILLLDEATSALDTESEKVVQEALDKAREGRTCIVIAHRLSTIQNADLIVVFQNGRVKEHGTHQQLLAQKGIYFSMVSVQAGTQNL
In short: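 HEK-293 cells stably expressing HiBit-tagged human ABCB4 WT, treated 24 h at 37 °C with 11-dose 3-fold dilutions, top final 30 μM in 0.3% DMSO. HiBit lytic reagent luminescence read after 1 h at 25 °C; Emax and EC50 derived.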

[1] = read-out: ABCA4 P1380L EC50, Emax

Compound | EC50 (ABCA4 P1380L; [1]) [µM] | EC50 (ABCD2 WT) [µM] | EC50 (ABCB4 WT) [µM] | EC50 (ABCA4 P1380L; ABCA4 P1380L EC50, Emax) [µM]
CCS(=O)(=O)Nc1ccc(-c2cncc(C#N)c2)nc1Oc1c(C)cc(C)nc1C [Compound I-247] | < 1 | > 25 | < 1 | –
Cc1cc(C)c(Oc2nc(-c3cncc(C#N)c3)ccc2S(=N)(=O)C2CC2)c(C)n1 (stereo not drawn) [Compound I-248] | 1 to 10 | > 25 | 1 to 10 | –
Cc1cc(C)c(Oc2nc(-c3cncc(C#N)c3)ccc2S(C)(=N)=O)c(C)n1 (stereo not drawn) [Compound I-249] | > 25 | 1 to 10 | < 25 | –
Cc1cnc(Oc2nc(-c3cncc(C#N)c3)ccc2NS(C)(=O)=O)c(C)c1 [Compound I-250] | > 25 | > 25 | ≥ 25 | –
Cc1cc(C2CC2)nc(C)c1Oc1nc(-c2cncc(C#N)c2)ccc1S(C)(=N)=O (stereo not drawn) [Compound I-251] | > 25 | > 25 | ≥ 25 | –
Cc1cc(C2CC2)nc(C)c1Oc1nc(-c2cncc(C#N)c2)ccc1NS(=O)(=O)C1CCC1 [Compound I-252] | < 1 | 1 to 10 | ≥ 25 | –
Cc1cc(C)c(Oc2nc(-c3cncc(C#N)c3)ccc2NS(=O)(=O)C2CCC2)c(C)c1 [Compound I-253] | < 25 | 1 to 10 | 1 to 10 | –
Cc1cc(C2CC2)nc(C)c1Oc1nc(-n2cnc(C#N)c2)ccc1NS(C)(=O)=O [Compound I-254] | < 1 | < 1 | < 25 | –
Cc1cc(C2CC2)nc(C)c1Oc1nc(-n2ccc(C#N)n2)ccc1NS(C)(=O)=O [Compound I-255] | > 25 | 1 to 10 | ≥ 25 | –
Cc1cc(C2CC2)nc(C)c1Oc1nc(-n2cc(C#N)cn2)ccc1NS(C)(=O)=O [Compound I-256] | > 25 | 1 to 10 | < 1 | –
Cc1cc(C)c(Oc2nc(-n3ccc(C#N)n3)ccc2NS(C)(=O)=O)c(C)c1 [Compound I-257] | < 25 | 1 to 10 | ≥ 25 | –
Cc1cc(C)c(Oc2nc(-c3cncc(C#N)c3)ccc2S(N)(=O)=O)c(C)n1 [Compound I-258] | – | 10 to 25 | < 25 | 1 to 10
Cc1cc(C)c(Oc2nc(-c3cncc(C#N)c3)cnc2NS(C)(=O)=O)c(C)n1 [Compound I-259] | < 25 | 1 to 10 | ≥ 25 | –
Cc1cc(C)c(Oc2nc(-c3cncc(Cl)c3)cnc2NS(C)(=O)=O)c(C)n1 [Compound I-260] | > 25 | 1 to 10 | ≥ 25 | –
Cc1cc(C2CC2)nc(C)c1Oc1nc(-c2cncc(S(C)(=O)=O)c2)ccc1NS(C)(=O)=O [Compound I-263] | 1 to 10 | 1 to 10 | 1 to 10 | –
Cc1cc(C2CC2)nc(C)c1Oc1nc(-c2cncc(C#N)c2)ccc1NS(=O)(=O)C1CC1 [Compound I-264] | < 1 | > 25 | < 1 | –
CNS(=O)(=O)c1ccc(-c2cncc(C#N)c2)nc1Oc1c(C)cc(C)nc1C [Compound I-265] | 1 to 10 | 1 to 10 | < 1 | –
Cc1cc(C)c(Oc2nc(-c3cncc(C#N)c3)ccc2NS(=O)(=O)C2CC2)c(C)n1 [Compound I-266] | < 1 | > 25 | < 1 | –

Compound | EC50 (ABCA4 P1380L; [1]) [µM] | EC50 (ABCD2 WT) [µM] | EC50 (ABCB4 WT) [µM] | EC50 (ABCA4 P1380L; ABCA4 P1380L EC50, Emax) [µM]
Cc1cc(C)c(Oc2nc(-c3cncc(C#N)c3)ccc2NS(=O)(=O)C2COC2)c(C)c1 [Compound I-267] | < 25 | < 1 | < 1 | –
Cc1cc(C)c(Oc2nc(-c3cncc(C#N)c3)ccc2NS(C)(=O)=O)c(C2CC2)n1 [Compound I-268] | < 1 | > 25 | < 1 | –
Cc1cc(C)c(Oc2nc(-c3ccc(C#N)nc3C)ccc2NS(C)(=O)=O)c(C)n1 [Compound I-269] | 1 to 10 | 1 to 10 | < 1 | –
Cc1cc(C)c(Oc2nc(-c3cc(C#N)cnc3C)ccc2NS(C)(=O)=O)c(C)n1 [Compound I-270] | < 25 | 1 to 10 | < 25 | –
Cc1cc(C2CC2)cc(C)c1Oc1nc(-c2cncc(C#N)c2)ccc1NS(C)(=O)=O [Compound I-271] | < 1 | > 25 | 1 to 10 | –
Cc1cc(C)c(Oc2nc(-n3cnc(C#N)c3)ccc2N(C)S(C)(=O)=O)c(C)c1 [Compound I-272] | 1 to 10 | > 25 | < 25 | –
Cc1cc(C)c(Oc2nc(-n3cnc(C#N)c3)ccc2NS(C)(=O)=O)c(C)c1 [Compound I-273] | < 25 | < 1 | < 25 | –
Cc1cc(C)c(Oc2nc(-n3cc(C#N)cn3)ccc2NS(C)(=O)=O)c(C)c1 [Compound I-274] | < 1 | 1 to 10 | < 25 | –
Cc1cc(C)c(Oc2nc(-c3cncc(C#N)c3)cnc2NS(C)(=O)=O)c(C)c1 [Compound I-275] | < 25 | < 1 | ≥ 25 | –
Cc1cc(C)c(Oc2nc(-c3cncc(C#N)c3)ccc2NS(=O)(=O)C(C)C)c(C)n1 [Compound I-276] | < 1 | > 25 | < 1 | –
Cc1cc(C)c(Oc2nc(-c3cncc(Cl)c3)cnc2NS(C)(=O)=O)c(C)c1 [Compound I-277] | < 25 | < 1 | ≥ 25 | –
Cc1cc(C)c(Oc2nc(-c3cncc(S(C)(=O)=O)c3)ccc2NS(C)(=O)=O)c(C)c1 [Compound I-278] | 1 to 10 | 1 to 10 | ≥ 25 | –
Cc1cc(C)c(Oc2nc(-c3cncc(C#N)c3)ccc2S(C)(=N)=O)c(C)c1 (stereo not drawn) [Compound I-279] | < 1 | 10 to 25 | < 1 | –
Cc1cc(C)c(Oc2nc(-c3cncc(C#N)c3)ccc2S(N)(=O)=O)c(C)c1 [Compound I-280] | < 1 | < 1 | < 1 | –
CNS(=O)(=O)c1ccc(-c2cncc(C#N)c2)nc1Oc1c(C)cc(C)cc1C [Compound I-281] | < 1 | < 1 | < 1 | –
Cc1cc(C)c(Oc2nc(-c3cc(Cl)cnc3C)ccc2NS(C)(=O)=O)c(C)n1 [Compound I-282] | > 25 | 1 to 10 | ≥ 25 | –
Cc1cc(C)c(Oc2nc(-c3cn(C)nc3C)ccc2NS(C)(=O)=O)c(C)c1 [Compound I-283] | < 1 | 1 to 10 | < 1 | –
Cc1cc(C)c(Oc2nc(-c3cncc(C#N)c3)ncc2NS(C)(=O)=O)c(C)n1 [Compound I-284] | < 25 | < 1 | < 1 | –
